Test [1] has as its target Gppcp-bound recombinant K-Ras4B G12C mutant protein (amino acids 1-169, C51S/C80L/C118S) (Homo sapiens, UniProt P01116, C118S/C51S/C80L/G12C). As to the kind of experiment: KRASG12C binding assay (LC-MS, compound binding rate). Particulars: test compound final concentration 0.5 μM, 25° C., 1 hour. In short, it runs like this:
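Gppcp-bound K-Ras4B G12C (1-169; C51S/C80L/C118S), 50 nM in TBS with 0.1 mM TCEP, 0.25 mM MgCl2, 50 μM Gppcp, exposed to compound at 0.5 μM final for 1 h at 25 °C. Quenched with formic acid and analysed by intact-protein ESI LC-MS. Binding rate is the mono-adduct signal over total KRAS signal; graded A (≥80%) to E (<20%).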

For test [2], the target named is T1, interaction between recombinant K-Ras4B G12C mutant protein and cRAF RAS-binding domain (cRAF-RBD) (Homo sapiens, UniProt P01116, G12C).
T1 construct: made in house; host or cells: E. coli
As to the kind of experiment: Inhibitory activity on interaction between KRAS G12C and cRAF (Alpha technology). Particulars: GMPPNP-bound KRAS G12C incubated with compound at 25° C. for 1 hour, then cRAF-RBD; Alpha signal. The test is classed as biochemical. The procedure, abridged: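 GMPPNP-loaded His-tagged KRAS G12C (aa 1-169, E. coli) preincubated with compound 1 h at 25° C in Tris pH 7.5, 100 mM NaCl, 1 mM MgCl2, TCEP, 0.1% Tween 20; cRAF-RBD (aa 50-132) added, 1.5 h RT, Alpha signal read. DMSO = 0%, GDP-bound KRAS = 100% inhibition; IC50 from dose titration fit.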

For the next test, the system named is MIA PaCa-2 cells. Description: Growth inhibition activity on KRAS-G12C mutant cell line (MIA PaCa-2), CellTiter-Glo 3D. Particulars: MIA PaCa-2, 3-day culture with compound. The test is classed as cell-based, human. The procedure, abridged: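 Cells in RPMI1640 with 10% FBS were seeded in U-bottom plates and cultured 1 day at 37 °C, 5% CO2, then exposed to compound (0.2% DMSO final) for 3 more days. Viability read by CellTiter-Glo 3D luminescence; IC50 from growth inhibition relative to untreated wells.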

Take `Cc1cc2c(ncn2C)c(Cl)c1-c1cccn2c(C(=O)c3cc(F)c(NC(=O)/C=C/CNC4CCOCC4)c(F)c3)ccc12` (single isomer, unassigned) [Example 27-2, (E)-N-(4-(8-(4-chloro-1,6-dimethyl-1H-benzo[d]imidazol-5-yl)indolizine-3-carbonyl)-2,6-difluorophenyl)-4-((tetrahydro-2H-pyran-4-yl)amino)but-2-enamide]: the binding rate result in test [1] was “A (A binding rate of 80% or more is rated “A”)”. In addition, the concentration for half-maximal inhibition (IC50) in test [2] is 120 nM; in the test on MIA PaCa-2 cells it was 530 nM.
Turning to `CO[C@H]1CC[C@H](NC/C=C/C(=O)Nc2c(F)cc(C(=O)c3cc(I)c4c(-c5c(C)cc6c(nc(C)n6C)c5Cl)cccn34)cc2F)CC1` [Example 75, (E)-N-(4-(8-(4-chloro-1,2,6-trimethyl-1H-benzo[d]imidazol-5-yl)-1-iodoindolizine-3-carbonyl)-2,6-difluorophenyl)-4-(((1r,4r)-4-methoxycyclohexyl)amino)but-2-enamide], in test [1], the binding rate entry is “A (A binding rate of 80% or more is rated “A”)”. Besides, the concentration for half-maximal inhibition (IC50) in test [2] is 37 nM; with MIA PaCa-2 cells (Homo sapiens, MIA PaCa-2, 72 h) it was 230 nM.
On the same counts, the results for `CO[C@H]1CC[C@H](NC/C=C/C(=O)Nc2c(F)cc(C(=O)c3ccc4c(-c5c(C#N)cc6c(nc(C)n6C)c5Cl)cccn34)cc2F)CC1` [Example 37, (E)-N-(4-(8-(4-chloro-6-cyano-1,2-dimethyl-1H-benzo[d]imidazol-5-yl)indolizine-3-carbonyl)-2,6-difluorophenyl)-4-(((1r,4r)-4-methoxycyclohexyl)amino)but-2-enamide] are “A (A binding rate of 80% or more is rated “A”)”, 87 nM and 240 nM.
On to `Cc1cc2c(ncn2C)c(Cl)c1-c1cccn2c(C(=O)c3cc(F)c(NC(=O)/C=C/CNC(C)(C)C)c(F)c3)ccc12` (single isomer, unassigned) [Example 13-2, (E)-4-(tert-butylamino)-N-(4-(8-(4-chloro-1,6-dimethyl-1H-benzo[d]imidazol-5-yl)indolizine-3-carbonyl)-2,6-difluorophenyl)but-2-enamide], for which, in test [1], the binding rate result is given as “A (A binding rate of 80% or more is rated “A”)”. The IC50 in test [2] stood at 320 nM; in the test on MIA PaCa-2 cells, 220 nM.
On the same counts, the results for `C=Cc1cc(C(=O)c2cc(F)c(NC(=O)/C=C/CNC3(C)CC3)c(F)c2)n2cccc(-c3c(OC)cc4c(nc(C)n4C)c3F)c12` (single isomer, unassigned) [Example 111-1, (E)-N-(2,6-difluoro-4-(8-(4-fluoro-6-methoxy-1,2-dimethyl-1H-benzo[d]imidazol-5-yl)-1-vinylindolizine-3-carbonyl)phenyl)-44-((1-methylcyclopropyl)amino)but-2-enamide] are “A (A binding rate of 80% or more is rated “A”)”, 8.71 nM and 46.5 nM.
Turning to `COc1cc2c(nc(C)n2C)c(Cl)c1-c1cccn2c(C(=O)c3cc(F)c(NC(=O)/C=C/CNC(C)(C)C)c(F)c3)ccc12` (single isomer, unassigned) [Example 36-1, (E)-4-(tert-butylamino)-N-(4-(8-(4-chloro-6-methoxy-1,2-dimethyl-1H-benzo[d]imidazol-5-yl)indolizine-3-carbonyl)-2,6-difluorophenyl)but-2-enamide], in test [1], the binding rate result was “B (a binding rate of 60% or more and less than 80% is rated “B”)”. For the same compound, the IC50 in test [2] was 40 nM; with MIA PaCa-2 cells, 24 nM.
Turning to `C=Cc1cc(C(=O)c2cc(F)c(NC(=O)/C=C/CN[C@H]3CC[C@H](OC)CC3)c(F)c2)n2cccc(-c3c(C)cc4c(nc(C)n4C)c3Cl)c12` [Example 88, (E)-N-(4-(8(4-chloro-1,2,6-trimethyl-1H-benzo[d]imidazol-5-yl)-1-vinylindolizine-3-carbonyl)-2,6-difluorophenyl)-4-(((1r,4r)-4-methoxycyclohexyl)amino)but-2-enamide], the binding rate entry in test [1] was “A (A binding rate of 80% or more is rated “A”)”. In addition, the IC50 in test [2] came out at 26 nM; in the test on MIA PaCa-2 cells (Homo sapiens, MIA PaCa-2, 72 h), 130 nM.
The like results for `CO[C@H]1CC[C@H](NC/C=C/C(=O)Nc2c(F)cc(C(=O)c3ccc4c(-c5c(Br)cc6c(nc(C)n6C)c5Cl)cccn34)cc2F)CC1` [Example 31, (E)-N-(4-(8(6-bromo-4-chloro-1,2-dimethyl-1H-benzo[d]imidazol-5-yl)indolizine-3-carbonyl)-2,6-difluorophenyl)-4-(((1r,4r)-4-methoxycyclohexyl)amino)but-2-enamide] were, in that order, “A (A binding rate of 80% or more is rated “A”)”, 62 nM and 64 nM.
On the same counts, the results for `CCc1cc2c(nc(C)n2C)c(Cl)c1-c1cccn2c(C(=O)c3cc(F)c(NC(=O)/C=C/CNC4CCOCC4)c(F)c3)ccc12` [Example 17, (E)-N-(4-(8(4-chloro-6-ethyl-1,2-dimethyl-1H-benzo[d]imidazol-5-yl)indolizine-3-carbonyl)-2,6-difluorophenyl)-4-((tetrahydro-2H-pyran-4-yl)amino)but-2-enamide] are “A (A binding rate of 80% or more is rated “A”)”, 48 nM and 32 nM.
The like results for `Cc1nc2c(-c3cc4nc(C)n(C)c4cc3C(F)(F)F)cccn2c1C(=O)c1cc(F)c(NC(=O)/C=C/CNC(C)(C)C)c(F)c1` [Example 52, (E)-4-(tert-butylamino)-N-(4-(8-(1,2-dimethyl-6-(trifluoromethyl)-1H-benzo[d]imidazol-5-yl)-2-methylimidazo[1,2-a]pyridine-3-carbonyl)-2,6-difluorophenyl)but-2-enamide] were, in that order, “A (A binding rate of 80% or more is rated “A”)”, 75 nM and 190 nM.
For `CO[C@H]1CC[C@H](NC/C=C/C(=O)Nc2c(F)cc(C(=O)c3ccc4c(-c5c(C)cc6c(nc(C)n6C)c5Cl)cccn34)cc2F)CC1` (single isomer, unassigned) [Example 19-2, (E)-N-(4-(8-(4-chloro-1,2,6-trimethyl-1H-benzo[d]imidazol-5-yl)indolizine-3-carbonyl)-2,6-difluorophenyl)-4-(((1r,4r)-4-methoxycyclohexyl)amino)but-2-enamide], the binding rate entry in test [1] is recorded as “A (A binding rate of 80% or more is rated “A”)”. Also, the 50% inhibitory concentration (IC50) in test [2] stood at 140 nM; in the test with MIA PaCa-2 cells, 160 nM.
Turning to `CCc1cc(C(=O)c2cc(F)c(NC(=O)/C=C/CN[C@H]3CC[C@H](OC)CC3)c(F)c2)n2cccc(-c3c(C)cc4c(nc(C)n4C)c3Cl)c12` [Example 89, (E)-N-(4-(8-(4-chloro-1,2,6-trimethyl-1H-benzo[d]imidazol-5-yl)-1-ethylindolizine-3-carbonyl)-2,6-difluorophenyl)-4-(((1r,4r)-4-methoxycyclohexyl)amino)but-2-enamide], the binding rate entry in test [1] is “A (A binding rate of 80% or more is rated “A”)”. The half-maximal inhibitory concentration (IC50) in test [2] is 22 nM; with MIA PaCa-2 cells (Homo sapiens, MIA PaCa-2, 72 h), 100 nM.
In the case of `Cc1nc2cc(-c3cccn4c(C(=O)c5cc(F)c(NC(=O)/C=C/CNC6CCCCC6O)c(F)c5)ccc34)c(C(F)(F)F)cc2n1C` (stereo not drawn) [Example 63, (E)-N-(4-(8-(1,2-dimethyl-6-(trifluoromethyl)-1H-benzo[d]imidazol-5-yl)indolizine-3-carbonyl)-2,6-difluorophenyl)-4-((2-hydroxycyclohexyl)amino)but-2-enamide], the binding rate result in test [1] was “A (A binding rate of 80% or more is rated “A”)”. In addition, the IC50 in test [2] is 71 nM; with MIA PaCa-2 cells (Homo sapiens, MIA PaCa-2, 72 h), 400 nM.
On the same counts, the results for `Cc1nc2cc(-c3cccn4c(C(=O)c5cc(F)c(NC(=O)/C=C/CNC6CCOC(C)(C)C6)c(F)c5)ccc34)c(C(F)(F)F)cc2n1C` (stereo not drawn) [Example 66] are “A (A binding rate of 80% or more is rated “A”)”, 70 nM and 97 nM.
On the same counts, the results for `Cc1nc2cc(-c3cccn4c(C(=O)c5cc(F)c(NC(=O)/C=C/CNC6(C)CCOCC6)c(F)c5)ccc34)c(C(F)(F)F)cc2n1C` [Example 26] are “A (A binding rate of 80% or more is rated “A”)”, 62 nM and 82 nM.
The like results for `CO[C@H]1CC[C@H](NC/C=C/C(=O)Nc2c(F)cc(C(=O)c3ccc4c(-c5c(C(F)(F)F)cc6c(nc(CO)n6C)c5Cl)cccn34)cc2F)CC1` [Example 67, (E)-N-(4-(8-(4-chloro-2-(hydroxymethyl)-1-methyl-6-(trifluoromethyl)-1H-benzo[d]imidazol-5-yl)indolizine-3-carbonyl)-2,6-difluorophenyl)-4-(((1r,4r)-4-methoxycyclohexyl)amino)but-2-enamide] were, in that order, “A (A binding rate of 80% or more is rated “A”)”, 38 nM and 51 nM.
